Experimental data published in ChEMBL document CHEMBL1944594, “Synthesis, biological evaluation, and docking studies of tetrahydrofuran- cyclopentanone- and cyclopentanol-based ligands acting at adrenergic α₁- and serotonine 5-HT1A receptors” (J Med Chem, 2012).

Legend:
[1] = target: T1, Alpha-1A adrenergic receptor (Rattus norvegicus) (UniProt P43140); test: Antagonist activity at alpha1A adrenoceptor in Wistar rat prostatic vas deferens assessed as inhibition of (-)-noradrenalilne-induced contraction after 30 mins; assay type: functional, tissue-based
T1 sequence (whole entry): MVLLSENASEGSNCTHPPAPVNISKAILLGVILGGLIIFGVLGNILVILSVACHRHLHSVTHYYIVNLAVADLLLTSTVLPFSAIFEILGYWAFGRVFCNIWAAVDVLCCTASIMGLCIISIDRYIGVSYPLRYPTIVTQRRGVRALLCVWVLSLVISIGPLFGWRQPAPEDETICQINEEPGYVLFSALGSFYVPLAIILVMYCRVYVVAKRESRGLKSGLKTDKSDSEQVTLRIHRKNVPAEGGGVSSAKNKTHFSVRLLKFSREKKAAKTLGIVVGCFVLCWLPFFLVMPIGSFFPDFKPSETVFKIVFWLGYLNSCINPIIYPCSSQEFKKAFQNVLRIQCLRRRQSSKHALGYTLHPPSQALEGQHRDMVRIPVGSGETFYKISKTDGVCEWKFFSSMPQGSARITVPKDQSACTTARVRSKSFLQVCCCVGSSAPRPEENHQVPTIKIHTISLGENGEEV

[2] = target: T2, Alpha-1B adrenergic receptor (Rattus norvegicus) (UniProt P15823); test: Antagonist activity at Alpha-1B receptor in Wistar rat spleen assessed as inhibition of (-)-phenylephrine-induced contraction after 30 mins; assay type: functional, tissue-based
T2 sequence (whole entry): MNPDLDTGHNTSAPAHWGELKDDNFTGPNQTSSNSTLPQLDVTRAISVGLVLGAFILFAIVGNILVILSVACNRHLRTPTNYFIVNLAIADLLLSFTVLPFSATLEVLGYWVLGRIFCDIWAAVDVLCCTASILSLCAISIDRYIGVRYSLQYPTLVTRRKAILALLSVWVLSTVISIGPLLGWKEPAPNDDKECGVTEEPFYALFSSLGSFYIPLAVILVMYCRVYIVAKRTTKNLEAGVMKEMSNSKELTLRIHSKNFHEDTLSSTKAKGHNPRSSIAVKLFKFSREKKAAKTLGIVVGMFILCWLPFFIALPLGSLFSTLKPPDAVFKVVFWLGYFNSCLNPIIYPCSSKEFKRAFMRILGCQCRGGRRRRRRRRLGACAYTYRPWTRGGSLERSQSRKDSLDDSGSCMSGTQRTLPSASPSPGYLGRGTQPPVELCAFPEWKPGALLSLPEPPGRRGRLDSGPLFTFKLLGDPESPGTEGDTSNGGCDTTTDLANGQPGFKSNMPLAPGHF

[3] = target: T3, Alpha-1D adrenergic receptor (Rattus norvegicus) (UniProt P23944); test: Antagonist activity at Alpha-1D adrenoceptor in Wistar rat endothelium denuded thoracic aorta assessed as inhibition of (-)-noradrenalilne-induced contraction after 30 mins; assay type: functional, tissue-based
T3 sequence (whole entry): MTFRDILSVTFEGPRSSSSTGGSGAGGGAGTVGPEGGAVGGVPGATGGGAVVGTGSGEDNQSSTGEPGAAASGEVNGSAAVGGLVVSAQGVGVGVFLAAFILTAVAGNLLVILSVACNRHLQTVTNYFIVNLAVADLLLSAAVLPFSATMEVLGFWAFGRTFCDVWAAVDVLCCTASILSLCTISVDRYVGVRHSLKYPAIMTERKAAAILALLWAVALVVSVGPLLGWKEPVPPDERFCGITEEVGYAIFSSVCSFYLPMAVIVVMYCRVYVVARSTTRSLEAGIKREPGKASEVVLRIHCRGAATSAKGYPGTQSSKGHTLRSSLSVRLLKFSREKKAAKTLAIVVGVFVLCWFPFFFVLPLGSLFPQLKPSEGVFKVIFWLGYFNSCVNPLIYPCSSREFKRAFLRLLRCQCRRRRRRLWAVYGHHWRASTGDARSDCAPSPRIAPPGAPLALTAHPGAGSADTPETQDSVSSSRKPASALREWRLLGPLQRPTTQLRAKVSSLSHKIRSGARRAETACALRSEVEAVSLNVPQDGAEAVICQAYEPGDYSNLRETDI

[4] = target: T4, Alpha-1A adrenergic receptor (Homo sapiens, UniProt P35348); test: biochemical
T4 sequence (P35348 whole entry): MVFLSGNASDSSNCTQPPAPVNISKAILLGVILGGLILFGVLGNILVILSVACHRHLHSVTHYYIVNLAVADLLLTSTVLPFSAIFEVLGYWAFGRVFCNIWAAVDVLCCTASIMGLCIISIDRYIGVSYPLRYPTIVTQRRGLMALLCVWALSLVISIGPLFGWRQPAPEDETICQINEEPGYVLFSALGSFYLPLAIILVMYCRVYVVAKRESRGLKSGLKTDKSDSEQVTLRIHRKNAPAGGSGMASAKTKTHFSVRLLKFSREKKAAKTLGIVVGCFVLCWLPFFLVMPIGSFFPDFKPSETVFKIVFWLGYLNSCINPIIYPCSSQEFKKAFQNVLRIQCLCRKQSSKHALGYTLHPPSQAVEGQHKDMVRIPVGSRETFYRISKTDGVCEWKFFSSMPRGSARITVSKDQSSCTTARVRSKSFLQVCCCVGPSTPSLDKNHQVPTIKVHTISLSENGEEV
Description: Displacement of [3H]prazosin from human recombinant alpha1A adrenoceptor expressed in CHO cells after 30 mins by liquid scintillation counting

[5] = target: T5, Alpha-1B adrenergic receptor (Homo sapiens, UniProt P35368); test: biochemical
T5 sequence (P35368 whole entry): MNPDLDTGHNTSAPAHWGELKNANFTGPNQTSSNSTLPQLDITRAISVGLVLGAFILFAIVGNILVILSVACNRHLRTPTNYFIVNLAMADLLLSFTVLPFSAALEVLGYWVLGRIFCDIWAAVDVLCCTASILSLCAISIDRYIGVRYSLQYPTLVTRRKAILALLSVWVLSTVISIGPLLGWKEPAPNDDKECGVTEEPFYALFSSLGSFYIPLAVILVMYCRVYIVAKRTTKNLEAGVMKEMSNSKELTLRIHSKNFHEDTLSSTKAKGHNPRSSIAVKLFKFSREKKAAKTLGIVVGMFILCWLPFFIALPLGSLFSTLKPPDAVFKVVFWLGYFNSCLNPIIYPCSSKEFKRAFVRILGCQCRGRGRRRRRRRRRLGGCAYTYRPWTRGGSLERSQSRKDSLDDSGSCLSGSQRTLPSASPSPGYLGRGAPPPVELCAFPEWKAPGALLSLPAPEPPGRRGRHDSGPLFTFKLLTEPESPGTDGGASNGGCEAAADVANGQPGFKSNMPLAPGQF
Description: Displacement of [3H]prazosin from human recombinant alpha1B adrenoceptor expressed in CHO cells after 30 mins by liquid scintillation counting

[6] = target: T6, Alpha-1D adrenergic receptor (Homo sapiens, UniProt P25100); test: biochemical
T6 sequence (P25100 whole entry): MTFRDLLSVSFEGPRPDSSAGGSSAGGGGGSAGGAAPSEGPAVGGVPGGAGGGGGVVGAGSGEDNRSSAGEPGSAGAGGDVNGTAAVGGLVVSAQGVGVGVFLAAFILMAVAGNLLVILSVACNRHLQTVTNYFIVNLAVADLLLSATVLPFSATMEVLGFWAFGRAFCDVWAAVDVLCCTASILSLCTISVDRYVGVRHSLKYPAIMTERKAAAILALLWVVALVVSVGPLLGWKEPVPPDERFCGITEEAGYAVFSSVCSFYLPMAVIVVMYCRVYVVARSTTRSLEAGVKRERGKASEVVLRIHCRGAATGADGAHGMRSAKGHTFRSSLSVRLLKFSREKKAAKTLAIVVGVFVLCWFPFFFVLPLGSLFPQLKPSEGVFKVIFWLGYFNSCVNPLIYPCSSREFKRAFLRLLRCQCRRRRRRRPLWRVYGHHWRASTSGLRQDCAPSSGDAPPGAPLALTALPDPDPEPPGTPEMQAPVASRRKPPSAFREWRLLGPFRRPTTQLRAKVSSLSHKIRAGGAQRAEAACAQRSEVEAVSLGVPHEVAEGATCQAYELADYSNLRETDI
Description: Displacement of [3H]prazosin from human recombinant Alpha-1D adrenoceptor expressed in CHO cells after 30 mins by liquid scintillation counting

[7] = target: T7, 5-hydroxytryptamine receptor 1A (Homo sapiens, UniProt P08908); test: biochemical
T7 sequence (P08908 whole entry): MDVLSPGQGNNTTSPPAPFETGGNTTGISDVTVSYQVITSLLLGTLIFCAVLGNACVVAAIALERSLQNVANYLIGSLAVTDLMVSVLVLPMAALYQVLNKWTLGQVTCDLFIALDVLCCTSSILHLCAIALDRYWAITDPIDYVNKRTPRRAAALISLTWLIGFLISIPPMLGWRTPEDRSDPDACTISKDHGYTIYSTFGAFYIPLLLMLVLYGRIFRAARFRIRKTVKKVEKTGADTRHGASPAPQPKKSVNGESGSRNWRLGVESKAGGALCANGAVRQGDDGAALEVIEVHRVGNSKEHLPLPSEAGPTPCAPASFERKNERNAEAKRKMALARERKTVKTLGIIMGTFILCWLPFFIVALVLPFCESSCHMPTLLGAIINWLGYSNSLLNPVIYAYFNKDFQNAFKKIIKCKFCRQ

[8] = target: T8, 5-hydroxytryptamine receptor 1A (Homo sapiens) (UniProt P08908); test: Agonist activity at human recombinant 5HT1A receptor expressed in HeLa cells preincubated for 20 mins by [35S]GTPgammaS binding assay relative to 8-OH-DPAT; assay type: functional, cell-based
T8 sequence (whole entry): T7 sequence (P08908 whole entry)

[9] = target: T8, 5-hydroxytryptamine receptor 1A (Homo sapiens); details: HeLa

pKb [1] | pKb [2] | pKb [3] | Ki [4] [nM] | Ki [5] [nM] | Ki [6] [nM] | Ki [7] [nM] | Emax [8] [%] | pD2 [9] | SMILES
6.26 | 6.2 | 7.21 | 53.7 | 123 | 31.6 | 2 |  |  | c1ccc(OCCNCC2CCC(c3ccccc3)(c3ccccc3)O2)cc1 (centres undefined)
6.28 | 7.54 | 6.43 | 39.8 | 141 | 155 | 3.47 |  |  | COc1ccccc1N1CCN(CC2CCC(c3ccccc3)(c3ccccc3)C2=O)CC1 (centres undefined)
8.24 | 6.69 | 8.14 | 0.263 | 6.76 | 0.813 | 22.9 | 16.2 | 8.3 | COc1ccccc1N1CCN(CC2COC(c3ccccc3)(c3ccccc3)O2)CC1 (centres undefined)
6.57 | 7.7 | 8.42 | 110 | 74.1 | 5.75 | 0.324 | 64.1 | 8.96 | COc1ccccc1OCCNC[C@H]1CCC(c2ccccc2)(c2ccccc2)[C@@H]1O (relative stereo)
6.16 | 5.86 | 8.37 |  |  |  |  | 24.4 | 8.8 | c1ccc(OCCNCC2COC(c3ccccc3)(c3ccccc3)O2)cc1 (centres undefined)
7.24 | 6.92 | 8.09 | 26.9 | 39.8 | 6.31 | 0.832 | 53.4 | 9.04 | COc1ccccc1OCCNCC1CCC(c2ccccc2)(c2ccccc2)O1 (centres undefined)
< 5 | 6.95 | 6.3 | > 1000 | > 1000 | 389 | 10.5 | 25.5 | 7.44 | O=C1C(CNCCOc2ccccc2)CCC1(c1ccccc1)c1ccccc1 (centres undefined)
 | 7.48 |  |  |  |  |  |  | 9.27 | COc1ccccc1N1CCN(CCN2C(=O)CC3(CCCC3)CC2=O)CC1
6.39 | 6.92 | 6.54 | > 1000 | > 1000 | 141 | 3.47 | 39.4 | 8.37 | COc1ccccc1OCCNCC1CCC(c2ccccc2)(c2ccccc2)C1=O (centres undefined)
5.62 | 7.25 | 7.21 | 38.9 | 166 | 67.6 | 0.562 | 47.1 | 9.03 | COc1ccccc1N1CCN(C[C@H]2CCC(c3ccccc3)(c3ccccc3)[C@H]2O)CC1 (relative stereo)
5.43 | 6.67 | 6.86 | > 1000 | 288 | 93.3 | 9.55 | 64.9 | 7.94 | O[C@@H]1[C@@H](CNCCOc2ccccc2)CCC1(c1ccccc1)c1ccccc1 (relative stereo)
5.23 | 6.26 | 6.88 | > 1000 | > 1000 | > 1000 | 9.33 | 46.5 | 7.81 | O[C@@H]1[C@H](CNCCOc2ccccc2)CCC1(c1ccccc1)c1ccccc1 (relative stereo)
6.39 | 7.14 | 6.82 | 44.7 | 245 | 67.6 | 0.794 | 37.3 | 8.74 | COc1ccccc1N1CCN(C[C@H]2CCC(c3ccccc3)(c3ccccc3)[C@@H]2O)CC1
7.65 | 6.85 | 7.5 | 0.646 | 8.91 | 3.89 | 4.37 |  |  | COc1ccccc1N1CCN(CC2CCC(c3ccccc3)(c3ccccc3)O2)CC1 (centres undefined)
7.53 | 7.36 | 8.65 |  |  |  |  | 31.6 | 7.36 | COc1ccccc1OCCNCC1COC(c2ccccc2)(c2ccccc2)O1 (centres undefined)
